Here are results for 2 compounds from US11135237B2, “Lipophosphonoxins of second generation, and their use” (USTAV ORGANICKE CHEMIE A BIOCHEMIE AV CR, V.V.I., priority 2016, dated 2021).

For data set [1], the system named is E. coli 16702. The experiment in a line: MIC, microdilution method, resistant strains. In kind it is cell-based. To be noted: Escherichia coli, resistant strain, clinical isolate. Here is the method:
(§1) Antibacterial activity was measured using a standard microdilution method, showing the minimum inhibitory concentration (MIC) of the test sample which results in inhibition of bacterial growth. Disposable microtiter plates were used for the tests. Samples are dissolved in the brain-heart infusion broth (HiMedia Laboraties Pvt. Ltd., Czech Republic), and Mueller Hinton broth (HiMedia Laboraties, see above) at a final concentration ranging from 200 μg/ml to 1.5625 μg/ml. Plates were inoculated with a standard amount of test bacteria—inoculum density in the hole corresponds to 10^5-6 CFU/ml (colony forming units/ml). MIC values are read after 24/48 hours of incubation at 37° C. as the minimum inhibitory concentration of the test substance at which the growth of bacteria is inhibited. Minimal bactericidal concentration (MBC) is defined as the minimum concentration of the sample needed to achieve irreversible inhibition, therefore killing the bacteria after a defined time of incubation. The MBC was determined by inoculation method. 10 μl from the wells in a microplate with a defined concentration of test substance is taken with an applicator, and inoculated onto the surface of blood agar (Trios, Czech Republic) and Sabouraud agar (Trios, CR). The MBC was determined as the lowest concentration that inhibited visible growth of the bacteria used.

The test system of data set [2] is P. aeruginosa 16575. Briefly: MIC, microdilution method, resistant strains. In kind it is cell-based. As to conditions: Pseudomonas aeruginosa, resistant strain, clinical isolate. As to the method:
as §1
A general note: In broth dilution the organism is exposed to a series of concentrations in liquid medium.

The test system of data set [3] is S. aureus MRSA 4591. Briefly: MIC, microdilution method, resistant strains. In kind it is cell-based. As to conditions: Staphylococcus aureus, methicillin-resistant strain, clinical isolate. Here is the method:
as §1

The subject of data set [4] is S. epidermidis 8700B. The experiment in a line: MIC, microdilution method, resistant strains. To be noted: Staphylococcus epidermidis, methicilin-resistant strain, clinical isolate. Type of data set: cell-based. As to the method:
as §1

Data set [5] relates to E. faecium VanA 419ana. The experiment in a line: MIC, microdilution method, resistant strains. As to conditions: Enterococcus faecium, VANA419ANA; vancomycin-resistant strain, clinical isolate. In kind it is cell-based. Here is the method:
as §1

Data set [6] concerns S. haemolyticus 16568. The experiment in a line: MIC, microdilution method, resistant strains. In kind it is cell-based. As to conditions: Staphylococcus haemolyticus, fluoroquinolone-resistant strain, clinical isolate. As to the method: as §1
In data set [7] the test system is Salmonella Enteritidis S2-25. Briefly: MIC, microdilution method. In kind it is cell-based. As to conditions: Salmonella enterica, read after 24/48 hours of incubation at 37° C. Here is the method:
as §1

In data set [8] the test system is Stenotrophomonas matophilia S2-23. Briefly: MIC, microdilution method. In kind it is cell-based. As to conditions: S223, read after 24/48 hours of incubation at 37° C. Here is the method:
as §1

The test system of data set [9] is Acinetobacter baumanii A3-08. The experiment in a line: MIC, microdilution method. As to conditions: Acinetobacter baumannii, A308; read after 24/48 hours of incubation at 37° C. Type of data set: cell-based. Here is the method: as §1
Data set [10] concerns Burkholderia multivorans ATCC BAA-247. The experiment in a line: MIC, microdilution method. To be noted: ATCCBAA247, read after 24/48 hours of incubation at 37° C. Type of data set: cell-based. Here is the method:
as §1

Data set [11] relates to Bacillus subtilis. The experiment in a line: MIC, microdilution method, reference strains. To be noted: read after 24/48 hours of incubation at 37° C. Type of data set: cell-based. As to the method:
as §1, with “bacteria-inoculum” for “bacteria—inoculum”, “used. Standard reference bacterial strains (Escherichia coli CCM 3954, Pseudomonas aeruginosa CCM 3955, Enterococcus faecalis CCM 4224, Staphylococcus aureus CCM 4223) were obtained from the Czech Collection of Microorganisms (CCM) at […] University in Brno. Streptococcus agalactiae, Bacillus subtilis were obtained from the University Hospital Olomouc. The tested microorganisms were maintained in cryobanks (ITEST plus, Czech Republic) at -80° C.” for “used.”

Data set [12] concerns Enterococcus faecalis CCM 4224. The experiment in a line: MIC, microdilution method, reference strains. In kind it is cell-based. To be noted: CCM4224, read after 24/48 hours of incubation at 37° C. Here is the method:
as §1, with “bacteria-inoculum” for “bacteria—inoculum”, “used. Standard reference bacterial strains (Escherichia coli CCM 3954, Pseudomonas aeruginosa CCM 3955, Enterococcus faecalis CCM 4224, Staphylococcus aureus CCM 4223) were obtained from the Czech Collection of Microorganisms (CCM) at […] University in Brno. Streptococcus agalactiae, Bacillus subtilis were obtained from the University Hospital Olomouc. The tested microorganisms were maintained in cryobanks (ITEST plus, Czech Republic) at -80° C.” for “used.”

Data set [13] deals with Pseudomonas aeruginosa CCM 3955. The experiment in a line: MIC, microdilution method, reference strains. Type of data set: cell-based. As to conditions: CCM3955, read after 24/48 hours of incubation at 37° C. Here is the method:
as §1, with “bacteria-inoculum” for “bacteria—inoculum”, “used. Standard reference bacterial strains (Escherichia coli CCM 3954, Pseudomonas aeruginosa CCM 3955, Enterococcus faecalis CCM 4224, Staphylococcus aureus CCM 4223) were obtained from the Czech Collection of Microorganisms (CCM) at […] University in Brno. Streptococcus agalactiae, Bacillus subtilis were obtained from the University Hospital Olomouc. The tested microorganisms were maintained in cryobanks (ITEST plus, Czech Republic) at -80° C.” for “used.”

The subject of data set [14] is Escherichia coli CCM 3954. The experiment in a line: MIC, microdilution method, reference strains. Type of data set: cell-based. To be noted: CCM3954, read after 24/48 hours of incubation at 37° C. As to the method:
as §1, with “bacteria-inoculum” for “bacteria—inoculum”, “used. Standard reference bacterial strains (Escherichia coli CCM 3954, Pseudomonas aeruginosa CCM 3955, Enterococcus faecalis CCM 4224, Staphylococcus aureus CCM 4223) were obtained from the Czech Collection of Microorganisms (CCM) at […] University in Brno. Streptococcus agalactiae, Bacillus subtilis were obtained from the University Hospital Olomouc. The tested microorganisms were maintained in cryobanks (ITEST plus, Czech Republic) at -80° C.” for “used.”

Data set [15] has as its system Staphylococcus aureus CCM 4223. The experiment in a line: MIC, microdilution method, reference strains. In kind it is cell-based. As to conditions: CCM4223, read after 24/48 hours of incubation at 37° C. Here is the method:
as §1, with “bacteria-inoculum” for “bacteria—inoculum”, “used. Standard reference bacterial strains (Escherichia coli CCM 3954, Pseudomonas aeruginosa CCM 3955, Enterococcus faecalis CCM 4224, Staphylococcus aureus CCM 4223) were obtained from the Czech Collection of Microorganisms (CCM) at […] University in Brno. Streptococcus agalactiae, Bacillus subtilis were obtained from the University Hospital Olomouc. The tested microorganisms were maintained in cryobanks (ITEST plus, Czech Republic) at -80° C.” for “used.”

In data set [16] the test system is Streptococcus agalactiae. The experiment in a line: MIC, microdilution method, reference strains. As to conditions: read after 24/48 hours of incubation at 37° C. Type of data set: cell-based. As to the method:
as §1, with “bacteria-inoculum” for “bacteria—inoculum”, “used. Standard reference bacterial strains (Escherichia coli CCM 3954, Pseudomonas aeruginosa CCM 3955, Enterococcus faecalis CCM 4224, Staphylococcus aureus CCM 4223) were obtained from the Czech Collection of Microorganisms (CCM) at […] University in Brno. Streptococcus agalactiae, Bacillus subtilis were obtained from the University Hospital Olomouc. The tested microorganisms were maintained in cryobanks (ITEST plus, Czech Republic) at -80° C.” for “used.”

The test system of data set [17] is mice. The experiment in a line: Maximum tolerated dose in mice, oral administration. Type of data set: in vivo. Here is the method:
Maximum tolerated dose in mice was very high, for the compound of Example 3 and oral administration the maximum tolerated dose was 1500 mg/kg of bodyweight.

The test system of data set [18] is rabbits. Briefly: OECD404 test for skin irritation in rabbits. Type of data set: in vivo.

Values after ≈ are worked out from the molar mass of the structure shown.

The term MIC denotes the lowest concentration found to suppress growth. Regarding `CCCCCCCCCCCCCCOP(=O)(CCN(CCCN)CCCN)OC[C@H]1O[C@@H](n2ccc(=O)[nH]c2=O)C(O)C1O` (stereo partly shown) [Example 3, Tetradecyl-uridine-5′-yl-2-N-bis (3-aminopropyl)-2-aminoethyl phosphonate], the MIC in data set [1] is 3.12 µg/mL (≈ 4.72 µM); in data set [2] it was 1.56 µg/mL (≈ 2.36 µM); in data set [3], 6.25 µg/mL (≈ 9.44 µM); in data set [4] it was 1.56 µg/mL (≈ 2.36 µM); in data set [5], 100 µg/mL (≈ 151 µM); in [6] it was 1.56 µg/mL (≈ 2.36 µM). Further, the MIC in data set [7] came out at 6.25 µg/mL (≈ 9.44 µM); in data set [8], 50 µg/mL (≈ 75.5 µM); in [9], 25 µg/mL (≈ 37.8 µM); in data set [10], 200 µg/mL (≈ 302 µM); in data set [11], 0.78 µg/mL (≈ 1.18 µM); in [12], 25 µg/mL (≈ 37.8 µM). Moreover, the MIC is 0.78 µg/mL (≈ 1.18 µM) in data set [13], 6.25 µg/mL (≈ 9.44 µM) in data set [14], 6.25 µg/mL (≈ 9.44 µM) in data set [15] and 3.12 µg/mL (≈ 4.72 µM) in [16]. Also, the maximum tolerated dose in data set [17] is on record as 1500 mg/kg of bodyweight. In [18], the skin irritation entry is on record as “not an irritant”.
In the case of `CCCCCCCCCCCCCCOP(=O)(CCN(CCCNC(=N)N)CCCNC(=N)N)OC[C@H]1O[C@@H](n2ccc(=O)[nH]c2=O)C(O)C1O` (stereo partly shown) [Example 9], the minimal inhibitory concentration (MIC) was found to be 3.12 µg/mL (≈ 4.19 µM) in data set [1]; 6.25 µg/mL (≈ 8.38 µM) in [2]; 6.25 µg/mL (≈ 8.38 µM) in data set [3]; 3.12 µg/mL (≈ 4.19 µM) in [4]; 50 µg/mL (≈ 67 µM) in data set [5]; 3.12 µg/mL (≈ 4.19 µM) in data set [6]. Further, the MIC in data set [7] is 3.12 µg/mL (≈ 4.19 µM); in data set [8], 12.5 µg/mL (≈ 16.8 µM); in data set [9], 12.5 µg/mL (≈ 16.8 µM); in data set [10], 100 µg/mL (≈ 134 µM); in data set [11] it was 1.56 µg/mL (≈ 2.09 µM); in [12] it was 12.5 µg/mL (≈ 16.8 µM). Further, the MIC amounted to 3.12 µg/mL (≈ 4.19 µM) in [13], 3.12 µg/mL (≈ 4.19 µM) in data set [14], 6.25 µg/mL (≈ 8.38 µM) in data set [15] and 3.12 µg/mL (≈ 4.19 µM) in data set [16].
